The values that follow come from patent US6348477B1, “Anti-herpesvirus compounds and methods for identifying, making and using same” (Boehringer Ingelheim(Canada) Ltd., priority 1995, dated 2002).

Marks after values point to notes of the source that are not given here. Where only a bound is given, the exact number is not on record here.

The subject of series [1] is Hs-68 cells. Put plainly: Cytotoxicity noted in the CMV assays (table footnote). The format is cell-based. Conditions: Group 1 Table 1. The method, then: (§1) Hs-68 cells (ATCC # CRL 1635) were seeded in 96 well microtiter plates at 10,000 cells/well in 100 μL of DMEM medium (Gibco Canada Inc.) supplemented with 10% fetal bovine serum (FBS, Gibco Canada Inc.). The plates were incubated for 3 days at 37° to allow the cells to reach 80-90% confluency prior to the assay.
(§2) Hs-68 cells ( ATCC # CRL 1635) were seeded in 12-well plates at 83,000 cells/well in 1 mL of DMEM medium (Gibco Canada Inc.) supplemented with 10% fetal bovine serum (FBS, Gibco Canada Inc.). The plates were incubated for 3 days at 37° to allow the cells to reach 80-90% confluency prior to the assay.

Series [2] has as its target T1, HSV-1 helicase-primase (Human herpesvirus 1, UniProt P10189+P10236).
T1 construct: made in house; host or cells: Sf21 insect cells triply infected with recombinant baculoviruses
Put plainly: HSV-1 DNA-dependent ATPase assay (inhibition of HSV-1 helicase-primase). The format is biochemical. The note with it: Group 1 Table 1. An excerpt: A) HSV-1 DNA-Dependent ATP Assay (an in Vitro Assay Based on the Inhibition of HSV-1 Helicase-primase).
a) Preparation of enzyme: HSV-1 helicase-primase holoenzyme was produced in triply infected Sf21 cells using recombinant baculoviruses expressing the UL5, UL8 and UL52 helicase-primase subunits, as described by S. Dracheva et al., J. Biol. Chem. 1995, 270, 14148. The crude enzyme was purified by ammonium sulfate precipitation, Source 15Q® chromatography and Sephacryl® S-300 HR gel filtration (both purification systems can be obtained from Pharmacia Biotech Inc., Montreal, Quebec, Canada), see S. Dracheva et al., supra.
b) Assay: The DNA-dependent ATPase assay, described by J. J. Crute et al., Nucleic Acids Res. 1988, 16, 6585, was modified and used to evaluate the capability of the compounds of Group 1-formula 1 to inhibit HSV-1 helicase-primase activity. The reaction mixtures (80 μL each) contained 40 mM 4-(2-hydroxyethyl)-1-piperazineethanesulfonic acid (HEPES, pH 7.5), 10% (v/v) glycerol, 5.5 mM MgCl2, 1 mM DL-dithiothreitol (DTT), 50 μg/mL acetylated bovine serum albumin, 3.3% (v/v) DMSO, 4 mM ATP, 25 μM single-stranded M13 DNA hybridized to double-tailed 68-mer oligonucleotide and 3 μg/mL HSV-1 helicase-primase. After incubation for 20 min at 34°, formation of inorganic phosphate from hydrolysis of ATP was monitored spectrophotometrically at 650 nm using acidic ammonium molybdate/malachite green reagent, P. A. Lanzetta et al., Anal. Biochem. 1979, 100, 95. DNA-dependent ATPase activity was calculated from the net absorbance change in the presence and absence of inhibition.

Series [3] has as its system HCMV (strain AD169). Put plainly: Inhibition of HCMV replication, ELISA assay (Hs-68 cells, p28). Conditions: Human betaherpesvirus 5, AD169, Hs68; Group 1 Table 1; read-out: ELISA CMV EC50. The format is cell-based, human cytomegalovirus. The method, then:
(§3) C) Inhibition of Human Cytomegalovirus (HCMV) replication
(§4) The effect of compounds on the replication of HCMV has been measured by using an ELISA-based assay (ELISA) and a plaque reduction assay (PRA).
as §1
The medium was removed from wells by aspiration. The cells then were infected at a multiplicity of infection (MOI) of 0.01 PFU/cell with 50 μL of HCMV (strain AD169, ATCC VR-538) in DMEM medium supplemented with 5% heat inactivated FBS (assay medium). The virus was allowed to adsorb to cells for 2 h at 37°. Following viral adsorption, the medium was removed from the wells by aspiration. The cells were washed twice with 200 μL of assay medium to remove unabsorbed virus. The cells were then incubated with or without 100 μL of appropriate concentrations of test reagent in assay medium. After 8 days of incubation at 37°, the extent of viral replication was determined by an ELISA assay which detects the late structural protein p28 of HCMV.
Eight days after infection, the medium was aspirated from the wells. Non-specific binding sites were blocked by adding 200 μL of phosphate buffered saline containing 1% (w/v) bovine serum albumin (blocking buffer) to each well and incubating the plates for 30 min at room temperature. After removal of the blocking buffer by aspiration, the cells were fixed with 100 μL of cold ethanol-acetone solution (95:5) per well. The plates were placed at −20° for 30 min. The plates were washed 4 times with phosphate buffered saline containing 0.05% (v/v) polyoxyethylene sorbitan monolaurate (Tween 20®). Thereafter, 100 μL of mAb UL99 (Advanced Biotechnologies Inc., #13-130-100) recognizing HCMV protein p28 was added to each wells and plates were incubated for 2 h at room temperature. The plates were washed four times with 200 μL of the above-noted phosphate buffered saline/Tween-20® solution. The cells were then incubated with 100 μL of sheep anti-mouse IgGγ horseradish peroxidase conjugated for 2 h at room temperature. The plates were then washed four times with 200 μL of above-noted phosphate buffered saline/Tween-20®solution. Thereafter, 100 μL of ortho phenylenediamine dihydrochloride (OPD, Gibco Canada Inc.) solution was added to each well and the plates were agitated on a microplate shaker for 30 min in the dark. Color development was monitored at 450 nm using a microplate spectrophotometer.
The SAS program was used to calculate the % inhibition of viral replication and to generate EC50 values.
The EC50 values obtained according to this assay method for certain thiazolylphenyl derivatives of this invention are listed in the following tables under the heading ELISA CMV.
(ELISA stands for enzyme-linked immunosorbent assay.)

Series [4] concerns HCMV (strain AD169). The series can be described thus: Inhibition of HCMV replication, plaque reduction assay (PRA, Hs-68 cells). The note with it: Human betaherpesvirus 5, AD169, Hs68; Group 1 Table 1; read-out: PRA CMV EC50. The format is cell-based, human cytomegalovirus. The method, then: as §3, §4, §2
The medium was removed from the cells by aspiration. The cells were then infected with approximately 50 PFU of HCMV (strain AD169, ATCC VR-538) in DMEM medium supplemented with 5% inactivated FBS (assay medium). The virus was allowed to adsorb to cells for 2 h at 37°. Following viral adsorption, the medium was removed from the wells by aspiration. The cells were then incubated with or without 1 mL of appropriate concentrations of test reagent in assay medium. After 4 days of incubation at 37°, the medium was exchanged with fresh medium containing test compound and 4 days later the cells were fixed with 1% aqueous formaldehyde and stained with a 2% crystal violet solution in 20% ethanol in water. Microscopic plaques were counted using a stereomicroscope. Drug effects were calculated as a percent reduction in the number of plaques in the presence of each drug concentration compared to the number observed in the absence of drug. Ganciclovir was used as a positive control in all experiments.
The EC50 values obtained according to this assay for certain thiazolyl derivatives of this invention are listed in the following tables under the heading PRA CMV.
On the technique in general: Plaques are areas of infected cells; plaque reduction assays count them against a control.

T1 sequence (P10189 whole entry): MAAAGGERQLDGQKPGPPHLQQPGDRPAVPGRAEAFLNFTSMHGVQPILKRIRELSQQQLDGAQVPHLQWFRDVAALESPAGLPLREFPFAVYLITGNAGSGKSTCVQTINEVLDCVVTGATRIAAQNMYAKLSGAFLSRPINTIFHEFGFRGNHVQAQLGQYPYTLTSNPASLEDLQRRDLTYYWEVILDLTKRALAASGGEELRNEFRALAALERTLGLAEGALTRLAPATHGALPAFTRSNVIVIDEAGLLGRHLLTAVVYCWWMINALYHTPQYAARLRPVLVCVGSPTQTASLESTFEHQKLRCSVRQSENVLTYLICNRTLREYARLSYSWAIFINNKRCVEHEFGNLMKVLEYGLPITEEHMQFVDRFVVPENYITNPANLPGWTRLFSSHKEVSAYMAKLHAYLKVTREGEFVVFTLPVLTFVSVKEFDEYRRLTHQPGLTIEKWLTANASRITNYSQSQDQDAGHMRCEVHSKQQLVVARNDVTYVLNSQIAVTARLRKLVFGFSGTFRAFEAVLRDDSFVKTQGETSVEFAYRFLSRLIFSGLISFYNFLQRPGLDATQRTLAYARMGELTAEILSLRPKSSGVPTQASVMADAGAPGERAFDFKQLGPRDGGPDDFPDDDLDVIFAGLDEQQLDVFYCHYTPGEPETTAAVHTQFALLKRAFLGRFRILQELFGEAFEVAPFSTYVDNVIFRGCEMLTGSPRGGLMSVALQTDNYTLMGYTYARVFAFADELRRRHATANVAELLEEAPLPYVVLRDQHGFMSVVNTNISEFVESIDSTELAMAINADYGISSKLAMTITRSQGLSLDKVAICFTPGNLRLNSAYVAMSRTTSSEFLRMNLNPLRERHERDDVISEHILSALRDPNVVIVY
T1 sequence (P10192 whole entry, further chain): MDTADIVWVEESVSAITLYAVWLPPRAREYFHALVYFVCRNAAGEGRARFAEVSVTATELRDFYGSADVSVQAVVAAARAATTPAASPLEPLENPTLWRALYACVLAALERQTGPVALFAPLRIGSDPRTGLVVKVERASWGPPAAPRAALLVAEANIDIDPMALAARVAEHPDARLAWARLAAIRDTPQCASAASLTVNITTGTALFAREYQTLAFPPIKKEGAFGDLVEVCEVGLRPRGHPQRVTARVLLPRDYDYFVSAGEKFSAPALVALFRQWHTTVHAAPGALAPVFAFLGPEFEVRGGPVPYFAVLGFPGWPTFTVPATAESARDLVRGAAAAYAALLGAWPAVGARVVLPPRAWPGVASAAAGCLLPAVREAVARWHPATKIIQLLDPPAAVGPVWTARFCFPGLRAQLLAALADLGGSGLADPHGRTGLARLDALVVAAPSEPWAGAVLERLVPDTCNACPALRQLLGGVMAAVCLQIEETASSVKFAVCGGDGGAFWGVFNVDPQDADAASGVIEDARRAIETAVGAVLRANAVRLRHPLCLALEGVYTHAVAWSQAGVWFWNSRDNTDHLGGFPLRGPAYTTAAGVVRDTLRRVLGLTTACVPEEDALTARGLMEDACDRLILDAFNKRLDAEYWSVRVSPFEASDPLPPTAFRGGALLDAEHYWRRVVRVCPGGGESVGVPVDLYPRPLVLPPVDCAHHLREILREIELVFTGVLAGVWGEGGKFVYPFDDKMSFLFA
T1 sequence (P10236 whole entry): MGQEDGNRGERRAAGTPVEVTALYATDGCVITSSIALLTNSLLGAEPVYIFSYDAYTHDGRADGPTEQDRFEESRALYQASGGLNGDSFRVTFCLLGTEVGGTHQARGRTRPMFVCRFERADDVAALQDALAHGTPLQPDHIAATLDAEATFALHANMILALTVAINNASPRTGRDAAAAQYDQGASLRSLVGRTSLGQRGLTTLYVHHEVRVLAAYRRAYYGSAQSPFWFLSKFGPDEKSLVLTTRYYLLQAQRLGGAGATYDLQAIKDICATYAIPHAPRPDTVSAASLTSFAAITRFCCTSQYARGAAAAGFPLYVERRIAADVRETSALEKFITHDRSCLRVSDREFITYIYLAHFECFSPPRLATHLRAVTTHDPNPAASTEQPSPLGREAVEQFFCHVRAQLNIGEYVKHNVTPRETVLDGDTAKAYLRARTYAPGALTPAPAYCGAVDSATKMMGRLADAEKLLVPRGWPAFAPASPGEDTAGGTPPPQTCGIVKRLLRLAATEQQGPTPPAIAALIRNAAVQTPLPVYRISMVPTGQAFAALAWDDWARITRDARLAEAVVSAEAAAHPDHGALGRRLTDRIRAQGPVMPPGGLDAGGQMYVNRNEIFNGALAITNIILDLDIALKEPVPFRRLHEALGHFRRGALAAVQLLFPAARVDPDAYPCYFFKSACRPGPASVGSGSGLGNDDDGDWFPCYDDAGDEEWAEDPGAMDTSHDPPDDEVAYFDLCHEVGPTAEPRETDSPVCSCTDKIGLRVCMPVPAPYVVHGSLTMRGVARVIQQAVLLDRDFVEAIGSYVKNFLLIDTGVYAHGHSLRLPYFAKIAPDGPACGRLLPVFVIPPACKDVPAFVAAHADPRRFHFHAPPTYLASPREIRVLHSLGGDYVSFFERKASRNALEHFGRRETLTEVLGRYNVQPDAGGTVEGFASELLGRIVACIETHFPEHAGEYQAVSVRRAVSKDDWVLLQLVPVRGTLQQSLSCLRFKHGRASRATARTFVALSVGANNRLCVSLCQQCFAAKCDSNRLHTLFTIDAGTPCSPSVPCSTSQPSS

On to `Nc1nc(-c2ccc(NC(=O)CCNCc3ccccc3)cc2)cs1` [Example 8, N-{4-(2-Amino-4-thiazolyl)phenyl}-3-{(phenylmethyl)-amino}propanamide], for which the melting point was in the range of 131 to 133 °C.
For the molecule `CCC(CC)C(=O)N(CC(=O)Nc1ccc(-c2csc(N)n2)cc1)Cc1ccccc1` [Example 104], the “Cytotoxic at this concentration” value in series [1] (asterisk in PRA CMV) was >18* μM.
Take `Nc1nc(-c2ccc(NC(=O)[C@@H]3CCCN3Cc3ccccc3)cc2)cs1` [Example 15, N-{4-(2-Amino-4-thiazolyl)phenyl}-1-(phenylmethyl)-2(S)-pyrrolidinecarboxamide]: the melting point was 207 to 209 °C.
The same measure, in the same setting: for `Nc1nc(-c2ccc(NC(=O)CN(Cc3ccccc3)S(=O)(=O)N3CCOCC3)cc2)cs1` [Example 7, N-{4-(2-Amino-4-thiazolyl)phenyl}-2-{(4-morpholinylsulfonyl)(phenylmethyl)amino}acetamide] the value was 193 to 194 °C.
On the same count and under the same terms, next, `Nc1nc(-c2ccc(NC(=O)CN(Cc3ccccc3)C(=O)N3CCOCC3)cc2)cs1` [Example 6, N-{2-{{4-(2-Amino-4-thiazolyl)phenyl}amino}-2-oxoethyl}-N-(phenylmethyl)-4-morpholinecarboxamide]: 105 °C (dec.); `NC(=O)N(Cc1ccc(F)cc1)c1ccc(-c2csc(N)n2)cc1` [Example 2, N-{4-(2-Amino-4-thiazolyl)phenyl}-N-{(4-fluorophenyl)methyl}urea]: 227 to 230 °C.
Turning to `Cc1ccccc1CN(CC(=O)Nc1ccc(-c2csc(N)n2)cc1)C(=O)Cc1ccccn1` [Example 127], the “Cytotoxic at this concentration” value in series [1] (asterisk in PRA CMV) was 25* μM.
For `CCCC(CCC)N(CC(=O)Nc1ccc(-c2csc(N)n2)cc1)C(=O)OC(C)(C)C` [Example 111], in series [1] (asterisk in ELISA CMV column), the “Cytotoxic at this concentration” value was 4.0* μM.
In the case of `CCCC(CCC)N(CC(=O)Nc1ccc(-c2csc(N)n2)cc1)C(=O)C1CCCCC1` [Example 82], in series [1] (asterisk in PRA CMV), the “Cytotoxic at this concentration” value is on record as 7* μM.
On the same count and under the same terms, next, `Nc1nc(-c2ccc(NC(=O)CN(Cc3ccccc3)C(=O)Cc3cccnc3)cc2)cs1` [Example 113]: >50* μM.
In the case of `CC(C)(C)OC(=O)N1CCC[C@H]1C(=O)Nc1ccc(-c2csc(N)n2)cc1` [Example 13, tert-Butyl 2(S)-{{{4-(2-Amino-4-thiazolyl)phenyl}-amino}carbonyl}-1-pyrrolidinecarboxylate], the melting point is 238 to 239 °C.
Turning to `Nc1nc(-c2ccc(NC(=O)CN(CC3CCCCC3)C(=O)C3CCCC3)cc2)cs1` [Example 63], in series [1] (asterisk in PRA CMV), the “Cytotoxic at this concentration” value is reported as >21* μM.
In turn, `Nc1nc(-c2ccc(NC(=O)CN(Cc3ccccc3)C(=O)C3CCCCC3)cc2)cs1` [Example 4, N-{2-{{4-(2-Amino-4-thiazolyl)phenyl)amino}-2-oxoethyl}-N-(phenylmethyl)cyclohexanecarboxamide] yielded a melting point of 214.5 to 215.5 °C.
In series [2], `Nc1nc(-c2ccc(NC(=O)CN(CC3CCCCC3)S(=O)(=O)N3CCOCC3)cc2)cs1` [Example 107] came in with a half-maximal inhibitory concentration (IC50) of 2600 nM. Besides, the values for the 50% effective concentration (EC50) in series [3] and in series [4] were 1100 nM and 12000 nM, respectively. Moreover, in series [1] (asterisk in PRA CMV), the “Cytotoxic at this concentration” value was 12* μM.
For `Nc1nc(-c2ccc(NC(=O)CNCC3CCCCC3)cc2)cs1` [Example 3, N-{4-(2-Amino-4-thiazolyl)phenyl}-2-{(cyclohexyl-methyl)amino}acetamide], the melting point fell in the range of 164 to 166 °C.
As to `CN(C(=O)CNCc1ccccc1)c1ccc(-c2csc(N)n2)cc1` [Example 10, N-{4-(2-Amino-4-thiazolyl)phenyl}-N-methyl-2-{(phenylmethyl)amino)acetamide], the melting point lay in the range of 160 to 162 °C.
Still for that read-out and setting: for `Nc1nc(-c2ccc(NC(=O)CNCc3ccccc3)cc2)cs1` [Example 2, N-{4-(2-Amino-4-thiazolyl)phenyl}-2-{(phenylmethyl)-amino}acetamide] the value was 162 to 163 °C; for `CC(C)(C)OC(=O)N[C@@H](Cc1ccccc1)C(=O)Nc1ccc(-c2csc(N)n2)cc1` [Example 11, tert-Butyl N-{2-{{4-(2-Amino-4-thiazolyl)phenyl}-amino}-2-oxo-1(S)-(phenylmethyl)ethyl}carbamate], 183 to 185 °C; for `CCCCN(CCCC)C(=O)C(=O)Nc1ccc(-c2csc(N)n2)cc1` [Example 4, N-{4-(2-Amino-4-thiazolyl)phenyl}-N′,N′-dibutylethanediamide], 178 to 179 °C.
`Nc1nc(-c2ccc(NC(=O)[C@H]3CCC(=O)N3Cc3ccccc3)cc2)cs1` [Example 12, N-{4-(2-Amino-4-thiazolyl)phenyl}-5-oxo-1-(phenylmethyl)-2(R)-pyrrolidinecarboxamide] had a melting point of 245 to 246 °C.

A word on the melting point: it is the temperature of the solid-liquid transition. What is called IC50 is the midpoint of a concentration-inhibition curve. High values mean a need for much substance, low ones inhibition by little substance. The EC50 is the concentration giving half of the maximal effect.
